Patent publication US5420115A, “Method for the treatment of protoza infections with 2^1 -deoxy-2^1 -fluoropurine nucleosides” (priority 1992, dated 1995)
Read-outs that look alike come from different tables or passages of the source.

Experiments:
Influenza A and B [1] = assay: microbe, parasite or virus in culture; assay type: cell-based, chick embryo cells; conditions: read-out: Anti-influenza Activity CE cells IC50
Influenza A and B [2] = assay type: in vivo, mouse; conditions: given as +(n), route and dose not specified
[3] = primary chick embryo (CE) cells, influenza strain not given

Row | SMILES | IC50 (Influenza A and B [1]; in Gallus gallus) [nM] | Mouse log10 reduction in virus titre (Average of 5 Mice) (Influenza A and B [2]) [log10] | IC50 (Influenza A and B [1]; [3]) [nM]
1 | Nc1nc(N)c2ncn([C@@H]3O[C@H](CO)[C@@H](O)[C@H]3F)c2n1 [Example 6, 2,6-Diamino-9-(2-deoxy-2-fluoro-β-D-ribofuranosyl)-9H-purine] | 600 | 2.1 | –
2 | Nc1nc2c(ncn2[C@@H]2O[C@H](CO)[C@@H](O)[C@H]2F)c(=O)[nH]1 [Example 7, 9-(2-Deoxy-2-fluoro-β-D-ribofuranosyl)guanine] | – | 2.4 | 800 to 2000
3 | Nc1ncnc2c1ncn2[C@@H]1O[C@H](CO)[C@@H](O)[C@H]1F [Example 8, 9-(2-Deoxy-2-fluoro-β-D-ribofuranosyl)adenine] | – | 2.3 | 4000
4 | Nc1ncc2ncn([C@@H]3O[C@H](CO)[C@@H](O)[C@H]3F)c2n1 [Example 9, 2-Amino-9-(2-deoxy-2-fluoro-β-D-ribofuranosyl)-9H-purine] | – | 1.6 | –
5 | COc1nc(N)nc2c1ncn2[C@@H]1O[C@H](CO)[C@@H](O)[C@H]1F [Example 12, 2-Amino-9-(2-deoxy-2-fluoro-β-D-ribofuranosyl)-6-methoxy-9H-purine] | – | 1.9 | 400
